Data as given in patent publication US20080262080A1, “Allergy Suppressive Agent” (KYUSHU UNIVERSITY, NATIONAL UNIVERSITY CORPORATION, priority 2004, published 2008).

Legend:
[1] = tested on: FcεRI α- and γ-chains mRNA; experiment: mRNA transcription level of FcεRI α- and γ-chains in KU812 cells (RT-PCR, Southern hybridization); type: cell-based, human; conditions: serum-free, G3PDH control
Protocol: The mRNA expression of each of the FcεRI α- and γ-chains was detected by RT-PCR and southern hybridization using specific probes. G3PDH (glyceraldehyde-3-phosphate dehydrogenase) was employed as a control.
KU812 cells (1×10^6 cells/mL) were incubated under serum-free conditions in RPMI 1640 medium to which chrysin had been added. After incubating, the cells were washed with PBS once and then completely lysed by adding 1 mL of Trizol (Invitrogen) per 1×10^7 cells and quickly suspending. After allowing to stand at room temperature for 5 min, 0.2 mL of chloroform was added and the mixture was vigorously stirred and overturned. […] The concentration of the total RNA diluted 50-fold with water was measured using a wavelength of 260 nm. […]
The PCR mixture was prepared by mixing 1 μL of the cDNA, 0.8 μL of 2 mM dNTP, 0.6 μL of MgCl2, 0.5 μL of […] sense primer, 0.5 μL of 20 μM antisense primer, 0.1 μL of Taq DNA polymerase (Fermentas) and 1 μL of 10× Taq buffer accompanying Taq DNA polymerase and adjusting the total volume to 10 μL with distilled water. […] Next, amplification was conducted in 13 to 15 cycles (each cycle consisting of 1 min at 95° C., 1 min at 60° C. and 1 min at 72° C. The PCR product was electrophoresed on a 1% agarose gel and the amplified DNA was detected by Southern blotting. […]

blood cytokine levels = experiment: Blood cytokine levels of OVA-sensitized mice after chrysin intake (Mouse Cytokine Array); type: in vivo
Source text: Blood was collected as in Example 6 and 32 kinds of cytokines (6 Ckine, CTACK, Eotaxin, G-CSF, GM-CSF, IL-2, IL-3, Il-4, IL-5, Il-6, IL-9, IL-10, IL-12, IL-12p70, IL-13, IL-17, IFN-γ, KC, Leptin, MCP-1, MCP-5, MIP-1α, MIP-2, MIP-3β, RANTES, SCF, sTNFRI, TARC, TIMP-1, TNF-α, Tpo and VEGF) were detected using Ray Bio™ Mouse Cytokine Array (Ray Biotech, Inc.).

SMILES: O=c1cc(-c2ccccc2)oc2cc(O)cc(O)c12 [Chrysin, 5,7-dihydroxyflavone]
- expression of FcεRI at the mRNA level [1]: suppressed
- IL-4 level after taking chrysin (blood cytokine levels; in words): lower than the detection limit
- blood levels of G-CSF, GM-CSF, leptin and TNF-α (blood cytokine levels; in words): tendency toward increase
- cytokine levels of 26 of the 32 kinds of cytokines (blood cytokine levels; in words): no change
- G-CSF blood level, relative value (blood cytokine levels; non-intake group = 1): 2.43
- GM-CSF blood level, relative value (blood cytokine levels; non-intake group = 1): 1.68
- IL-4 blood level, relative value (blood cytokine levels; non-intake group = 1): 0
- Leptin blood level, relative value (blood cytokine levels; non-intake group = 1): 1.25
- MCP-1 blood level, relative value (blood cytokine levels; non-intake group = 1): 0.49
- TNF-α blood level, relative value (blood cytokine levels; non-intake group = 1): 2.17
